Assay results from a compilation of properties of binary mixtures (doi:10.1007/s10953-023-01258-3).

Assay: xn = mol fraction of the nth substance listed
Conditions: 101 kPa

Cn1cc[n+](CCCN)c1.F[B-](F)(F)F + CS(C)=O
Conditions	electrical conductivity [S/m]	viscosity [mPa·s]
288.15 K, x1 = 0.1003	0.829	17.63
288.15 K, x1 = 0.2	0.632	34.87
288.15 K, x1 = 0.2997	0.465	54.65
288.15 K, x1 = 0.3997	0.288	75.94
288.15 K, x1 = 0.4998	0.187	98.4
288.15 K, x1 = 0.5999	0.124	122.2
288.15 K, x1 = 0.7001	0.078	147.4
288.15 K, x1 = 0.8109	0.044	176.7
288.15 K, x1 = 0.8998	0.023	201.6
288.15 K, x1 = 1	0.011	231.2
293.15 K, x1 = 0.1003	0.943	13.32
293.15 K, x1 = 0.2	0.716	26.44
293.15 K, x1 = 0.4998	0.222	76.63
293.15 K, x1 = 0.7001	0.097	116.9
293.15 K, x1 = 0.8109	0.056	140.8
293.15 K, x1 = 1	0.018	185.4
298.15 K, x1 = 0.2	0.81	20.51
298.15 K, x1 = 0.2997	0.609	32.66
298.15 K, x1 = 0.3997	0.395	45.88
298.15 K, x1 = 0.4998	0.268	60.22
298.15 K, x1 = 0.5999	0.186	76.06
298.15 K, x1 = 0.7001	0.122	93.45
298.15 K, x1 = 0.8109	0.072	113.4
298.15 K, x1 = 0.8998	0.046	130.1
303.15 K, x1 = 0.1003	1.22	7.961
303.15 K, x1 = 0.2	0.919	16.1
303.15 K, x1 = 0.3997	0.462	36.37
303.15 K, x1 = 0.4998	0.317	47.87
303.15 K, x1 = 0.5999	0.228	60.72
303.15 K, x1 = 1	0.04	121.1
308.15 K, x1 = 0.1003	1.37	6.38
308.15 K, x1 = 0.2	1.05	13.1
308.15 K, x1 = 0.2997	0.799	20.89
308.15 K, x1 = 0.3997	0.533	29.16
308.15 K, x1 = 0.4998	0.37	38.73
308.15 K, x1 = 0.5999	0.271	49.63
308.15 K, x1 = 0.7001	0.183	61.64
308.15 K, x1 = 0.8998	0.082	87.11
313.15 K, x1 = 0.2	1.17	10.81
313.15 K, x1 = 0.2997	0.894	17.08
313.15 K, x1 = 0.3997	0.617	24.03
313.15 K, x1 = 0.4998	0.435	31.72
313.15 K, x1 = 0.7001	0.221	50.72
313.15 K, x1 = 0.8998	0.105	72.01
313.15 K, x1 = 1	0.072	83.06
318.15 K, x1 = 0.1003	1.71	4.406
318.15 K, x1 = 0.2	1.32	8.853
318.15 K, x1 = 0.2997	1.01	14.22
318.15 K, x1 = 0.4998	0.506	26.45
318.15 K, x1 = 0.5999	0.378	33.63
318.15 K, x1 = 0.8109	0.183	51.83
318.15 K, x1 = 0.8998	0.134	60.04
318.15 K, x1 = 1	0.094	69.26
323.15 K, x1 = 0.1003	1.91	3.679
323.15 K, x1 = 0.2	1.47	7.468
323.15 K, x1 = 0.2997	1.13	11.79
323.15 K, x1 = 0.3997	0.81	16.67
323.15 K, x1 = 0.5999	0.446	28.21
323.15 K, x1 = 0.7001	0.314	35.29
323.15 K, x1 = 0.8109	0.223	43.46
323.15 K, x1 = 0.8998	0.17	50.38
328.15 K, x1 = 0.2997	1.26	10.06
328.15 K, x1 = 0.4998	0.659	18.73
328.15 K, x1 = 0.5999	0.515	24.2
328.15 K, x1 = 0.7001	0.369	30.06
328.15 K, x1 = 0.8109	0.269	37.19
328.15 K, x1 = 0.8998	0.21	43.13
328.15 K, x1 = 1	0.159	50.12
333.15 K, x1 = 0.1003	2.3	2.79
333.15 K, x1 = 0.2	1.78	5.508
333.15 K, x1 = 0.3997	1.04	12.05
333.15 K, x1 = 0.4998	0.749	16.07
333.15 K, x1 = 0.5999	0.593	20.41
333.15 K, x1 = 0.7001	0.431	25.32
333.15 K, x1 = 0.8109	0.323	31.21
333.15 K, x1 = 0.8998	0.258	36.19
333.15 K, x1 = 1	0.203	42.31
338.15 K, x1 = 0.1003	2.53	2.4
338.15 K, x1 = 0.2	1.97	4.865
338.15 K, x1 = 0.2997	1.55	7.311
338.15 K, x1 = 0.4998	0.849	13.77
338.15 K, x1 = 0.5999	0.682	17.48
338.15 K, x1 = 0.7001	0.496	21.74
338.15 K, x1 = 0.8998	0.312	31.24
343.15 K, x1 = 0.2	2.17	4.241
343.15 K, x1 = 0.2997	1.71	6.401
343.15 K, x1 = 0.3997	1.3	8.856
343.15 K, x1 = 0.4998	0.948	11.78
343.15 K, x1 = 0.7001	0.572	19.03
343.15 K, x1 = 0.8109	0.449	23.52
343.15 K, x1 = 0.8998	0.374	27.44
343.15 K, x1 = 1	0.308	32.15
348.15 K, x1 = 0.1003	3.02	2.048
348.15 K, x1 = 0.2	2.37	3.722
348.15 K, x1 = 0.2997	1.88	5.565
348.15 K, x1 = 0.3997	1.46	7.954
348.15 K, x1 = 0.4998	1.07	10.3
348.15 K, x1 = 0.5999	0.877	13.38
348.15 K, x1 = 0.7001	0.656	16.16
348.15 K, x1 = 0.8109	0.524	20.12
348.15 K, x1 = 0.8998	0.445	23.5
348.15 K, x1 = 1	0.374	27.51
353.15 K, x1 = 0.1003	3.27	1.997
353.15 K, x1 = 0.2	2.58	3.564
353.15 K, x1 = 0.2997	2.07	5.199
353.15 K, x1 = 0.4998	1.19	9.541
353.15 K, x1 = 0.5999	0.978	12.09
353.15 K, x1 = 0.7001	0.749	14.98
353.15 K, x1 = 0.8109	0.608	18.65
353.15 K, x1 = 0.8998	0.522	21.71
353.15 K, x1 = 1	0.457	25.41

CS(C)=O + Cn1cc[n+](CCCN)c1.F[B-](F)(F)F
x2 = 0
Conditions	viscosity [mPa·s]
288.15 K	2.605
293.15 K	2.318
298.15 K	2.089
303.15 K	1.886
308.15 K	1.717
313.15 K	1.575
318.15 K	1.447
323.15 K	1.341
333.15 K	1.164
338.15 K	1.097
343.15 K	1.034
348.15 K	0.981
353.15 K	0.934
